The test system of this series is rodent carcinogenicity bioassays, tumor incidence. The series is described as follows: CCRIS carcinogenicity studies. The gist of the method: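 NCI-built, expert-reviewed records of carcinogenicity and related test outcomes (mutagenicity, tumor promotion/inhibition) compiled from published and report sources, historical span 1985-2011, not updated.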

Activity calls are given as the source filed them. How the calls were made is not given here.

`FC(F)(Cl)Cl`: the carcinogen call is “inactive; negative” (Species: MOUSE, Strain/Sex: SWISS/FEMALE, Route: INHALATION, Dose: 0, 1000, 5000 PPM 4 HR/D 5 D/WK FOR 78 WK (STUDY DURATION: LIFETIME), Dose: 0, 1000, 5000 PPM 4 HR/D 5 D/WK FOR 78 WK (STUDY DURATION: LIFETIME)); “inactive; negative” (Species: MOUSE, Strain/Sex: SWISS/MALE, Route: INHALATION, Dose: 0, 1000, 5000 PPM 4 HR/D 5 D/WK FOR 78 WK (STUDY DURATION: LIFETIME), Dose: 0, 1000, 5000 PPM 4 HR/D 5 D/WK FOR 78 WK (STUDY DURATION: LIFETIME)); “inactive; negative” (Species: RAT, Strain/Sex: SPRAGUE-DAWLEY/FEMALE, Route: INHALATION, Dose: 0, 1000, 5000 PPM 4 HR/D 5 D/WK FOR 104 WK (STUDY DURATION: LIFETIME), Dose: 0, 1000, 5000 PPM 4 HR/D 5 D/WK FOR 104 WK (STUDY DURATION: LIFETIME)); “inactive; negative” (Species: RAT, Strain/Sex: SPRAGUE-DAWLEY/FEMALE, Route: INHALATION, Dose: 0, 1000, 5000 PPM IN AIR 4 HR/D 5 D/WK FOR 104 WK (STUDY DURATION: LIFETIME), Dose: 0, 1000, 5000 PPM IN AIR 4 HR/D 5 D/WK FOR 104 WK (STUDY DURATION: LIFETIME), Tumor Site: Type of Lesion: [BRAIN WAS ONLY SITE EVALUATED]); “inactive; negative” (Species: RAT, Strain/Sex: SPRAGUE-DAWLEY/MALE, Route: INHALATION, Dose: 0, 1000, 5000 PPM 4 HR/D 5 D/WK FOR 104 WK (STUDY DURATION: LIFETIME), Dose: 0, 1000, 5000 PPM 4 HR/D 5 D/WK FOR 104 WK (STUDY DURATION: LIFETIME)); “inactive; negative” (Species: RAT, Strain/Sex: SPRAGUE-DAWLEY/MALE, Route: INHALATION, Dose: 0, 1000, 5000 PPM IN AIR 4 HR/D 5 D/WK FOR 104 WK (STUDY DURATION: LIFETIME), Dose: 0, 1000, 5000 PPM IN AIR 4 HR/D 5 D/WK FOR 104 WK (STUDY DURATION: LIFETIME), Tumor Site: Type of Lesion: [BRAIN WAS ONLY SITE EVALUATED]).

In the case of `O=CC(O)C(O)C(O)C(O)COC1OC(COC2OC(CO)C(O)C(O)C2O)C(O)C(O)C1O` (centres undefined), the carcinogen call was “inactive; negative” (Species: RAT, Strain/Sex: ACI/FEMALE, Route: ORAL, Dose: 0, 2.5% (MOL. WT. 21500) IN DIET FOR 480 D (STUDY DURATION: 480 D)) and “inactive; negative” (Species: RAT, Strain/Sex: ACI/MALE, Route: ORAL, Dose: 0, 2.5% (MOL. WT. 21500) IN DIET FOR 480 D (STUDY DURATION: 480 D)).

On to `O[C@@H]1[C@@H]2O[C@@H]2c2c(cc3ccc4cccc5ccc2c3c45)[C@H]1O`, for which the carcinogen call is, setting by setting: (Species: MOUSE, Strain/Sex: ICR/FEMALE, Route: INTRAPERITONEAL, Dose: 0, 25 NMOL (TOTAL DOSE) ADMINISTERED IN DOSES OF 1/7, 2/7, AND 4/7 ON DAYS 1, 7, AND 15 OF LIFE, RESPECTIVELY (STUDY DUR, Tumor Site: Type of Lesion: LUNG: TUMOR) “active; positive”; (Species: MOUSE, Strain/Sex: ICR/FEMALE, Route: INTRAPERITONEAL, Dose: 0;25 NMOL TOTAL DOSE INJECTED IN DOSES OF 1/7 ON DAY 1, 2.7 ON DAY 8, AND 4/7 ON DAY 15 OF LIFE (STUDY DURATION: 35 WK), Tumor Site: Type of Lesion: LUNG: TUMOR) “active; positive”; (Species: MOUSE, Strain/Sex: ICR/MALE, Route: INTRAPERITONEAL, Dose: 0, 25 NMOL TOTAL DOSE INJECTED IN DOSES OF 1/7 ON DAY 1, 2/7 ON DAY 8, AND 4/7 ON DAY 15 OF LIFE (STUDY DURATION: 35 WK), Tumor Site: Type of Lesion: LUNG:TUMOR) “active; positive”; (Species: MOUSE, Strain/Sex: ICR/MALE, Route: INTRAPERITONEAL, Dose: 0, 25 NMOL (TOTAL DOSE) ADMINISTERED IN DOSES OF 1/7, 2/7, AND 4/7 ON DAYS 1, 7, AND 15 OF LIFE, RESPECTIVELY (STUDY DUR, Tumor Site: Type of Lesion: LUNG: TUMOR) “active; positive”; (Species: RAT, Strain/Sex: STRAIN-CD/FEMALE, Route: INJECTION, Dose: 0, 2.04 UMOL IN 0.1 ML DMSO 3 INJECTIONS INTO MAMMARY TISSUE BENEATH THE 3 LEFT THORACIC NIPPLES ON THE NEXT DAY PROCEDU, Tumor Site: Type of Lesion: MAMMARY GLAND: TUMOR) “active; positive”; (Species: RAT, Strain/Sex: STRAIN-CD/FEMALE, Route: INJECTION, Dose: 0, 2.04 UMOL IN 0.1 ML DMSO INJECTED BENEATH EACH THE THREE LEFT THORACIC NIPPLES THEN ON THE NEXT DAY BENEATH EACH OF T, Tumor Site: Type of Lesion: MAMMARY GLAND: TUMOR) “active; positive”.

Turning to `O=C1OC(O)C(C(Cl)Cl)=C1Cl` (centres undefined), the carcinogen call by setting is: (Species: RAT, Strain/Sex: WISTAR/FEMALE, Route: ORAL, Dose: 0, 0.6, 1.9, 6.6 MG/KG BW IN DRINKING WATER FOR 104 WK (STUDY DURATION: 104 WK), Dose: 0, 0.6, 1.9, 6.6 MG/KG BW IN DRINKING WATER FOR 104 WK (STUDY DURATION: 104 WK), Tumor Site: Type of Lesion: MAMMARY GLAND: ADENOCARCINOMA, FIBROADENOMA, HEMATOPOIETIC SYSTEM: LYMPHOMA OR LEUKEMIA, LIVER: CHOLANGIOMA, ADENOMA, AD, Tumor Site: Type of Lesion: MAMMARY GLAND: ADENOCARCINOMA, FIBROADENOMA, HEMATOPOIETIC SYSTEM: LYMPHOMA OR LEUKEMIA, LIVER: CHOLANGIOMA, ADENOMA, AD) “active; positive”; (Species: RAT, Strain/Sex: WISTAR/MALE, Route: ORAL, Dose: 0, 0.4, 1.3, 5 MG/KG BW IN DRINKING WATER FOR 104 WK (STUDY DURATION: 104 WK), Dose: 0, 0.4, 1.3, 5 MG/KG BW IN DRINKING WATER FOR 104 WK (STUDY DURATION: 104 WK), Tumor Site: Type of Lesion: SKIN (SUBCUTANEOUS TISSUE): BASAL CELL TUMOR, LUNG: ALVEOLAR/BRONCHIOLAR ADENOMA, LIVER: CHOLANGIOMA,ADENOMA, PANCREAS (, Tumor Site: Type of Lesion: SKIN (SUBCUTANEOUS TISSUE): BASAL CELL TUMOR, LUNG: ALVEOLAR/BRONCHIOLAR ADENOMA, LIVER: CHOLANGIOMA,ADENOMA, PANCREAS () “active; positive”.

As for `[O]=[Al][O][Si](=O)O[Si](=O)[O][Al]=[O]`, the carcinogen call (Species: Rat, Strain/Sex: Wistar/Female (48/group), Route: Intratracheal, Dose: 6 mg instillations of 0.01-0.03 um particles given as 10 or 20 doses wk 26, study duration 115 or 121 wk or no treatment, Tumor Site: Type of Lesion: Lung: Bronchiolo-alveolar adenoma (12/48 and 11/47 in experimental animals vs 1/46 control animals), bronchiolo-alveolar) was “active; positive”.

For `[2H]c1c([2H])c([2H])c2c(C([2H])([2H])[2H])c3c(c([2H])c([2H])c4c([2H])c([2H])c([2H])c([2H])c43)c(C([2H])([2H])[2H])c2c1[2H]`, the carcinogen call reads like this: (Species: MOUSE, Strain/Sex: SWISS/FEMALE, Route: SUBCUTANEOUS, Dose: IN OLIVE OIL 1/MO FOR 3 MO FOR A TOTAL DOSE OF 0, 1.5 MG (STUDY DURATION: 395 D), Tumor Site: Type of Lesion: INJECTION SITE: FIBROBLASTIC SARCOMA) “active; positive”; (Species: MOUSE, Strain/Sex: SWISS/MALE, Route: SUBCUTANEOUS, Dose: IN OLIVE OIL 1/MO FOR 3 MO FOR A TOTAL DOSE OF 0, 1.5 MG (STUDY DURATION: 395 D), Tumor Site: Type of Lesion: INJECTION SITE: FIBROBLASTIC SARCOMA) “active; positive”.

(Values after PubChem BioAssay AID1259411 (Chemical Carcinogenesis Research Information System (CCRIS), 2018).)
